Source: ChEMBL document CHEMBL5625222, “Design, synthesis, and biological evaluation of 1,6-naphthyridine-2-one derivatives as novel FGFR4 inhibitors for the treatment of colorectal cancer” (Eur J Med Chem, 2023)
Activity calls are given as the source filed them. The calls are words filed in the database; no cut-off is given here.

Assays:
HCT-116 [1] = experiment: Induction of cell cycle arrest in human HCT-116 cells assessed as accumulation of cells at G2/M phase incubated for 48 hrs by propidium iodide staining based flow cytometry; type: functional
HCT-116 [2] = experiment: Antitumor activity against human HCT-116 cells xenografted in BALB/c mouse assessed as chromatin condensation at 10 mg/kg,ip administrated for 2 weeks by hematoxylin and eosin staining based analysis; type: functional, organism-based
HCT-116 [3] = experiment: Antiproliferative activity against human HCT-116 cells assessed as inhibition of cell growth incubated for 48 hrs by EdU staining method; type: functional, cell-based
HCT-116 [4] = experiment: Anti-migration activity in human HCT-116 cells assessed as downregulation of FAK phosphorylation by Western blotting analysis; type: functional, cell-based
HCT-116 [5] = experiment: Antitumor activity against human HCT-116 cells xenografted in BALB/c mouse assessed as downregulation of FAK phosphorylation in tumor at 10 mg/kg,ip administrated for 2 weeks by Western blotting analysis; type: functional, organism-based
SW480 [6] = experiment: cells; details: Homo sapiens, SW480, 48 h
Description: Antiproliferative activity against human SW480 cells assessed as inhibition of cell growth incubated for 48 hrs by MTT assay

HCT-116 [7] = experiment: Antitumor activity against human HCT-116 cells xenografted in BALB/c mouse assessed as downregulation of FAK expression in tumor at 10 mg/kg,ip administrated for 2 weeks by Western blotting analysis; type: functional, organism-based
[8] = Toxicity in BALB/c mouse xenografted with human HCT-116 cells assessed as change in heart weight at 20 mg/kg,ip administrated for 2 weeks; type: organism-based; details: in vivo, 336 h
[9] = Hepatotoxicity in ICR mouse assessed as change in serum creatinine level at 60 mg/kg,po administrated for 1 week; type: toxicity, organism-based; details: in vivo, 168 h, time 1 weeks
[10] = Toxicity in BALB/c mouse xenografted with human HCT-116 cells assessed as change in body weight at 20 mg/kg,ip administrated for 2 weeks; type: organism-based; details: in vivo, 336 h
SW480 [11] = experiment: Anti-migration activity in human SW480 cells assessed as upregulation of E-cad expression by Western blotting analysis; type: functional, cell-based
[12] = Toxicity in BALB/c mouse xenografted with human HCT-116 cells assessed as change in body weight at 10 mg/kg,ip administrated for 2 weeks; type: organism-based; details: in vivo, 336 h
HCT-116 [13] = experiment: Antitumor activity against human HCT-116 cells xenografted in BALB/c mouse assessed as downregulation of FGFR4 signalling pathway in tumor at 10 mg/kg,ip administrated for 2 weeks by Western blotting analysis; type: functional, organism-based
[14] = Toxicity in BALB/c mouse xenografted with human HCT-116 cells assessed as change in kidney weight at 20 mg/kg,ip administrated for 2 weeks; type: organism-based; details: in vivo, 336 h
[15] = Toxicity in ICR mouse assessed as histopathological change in kidney at 20 mg/kg,po administrated for 1 week by hematoxylin and eosin staining analysis; type: organism-based; details: in vivo, 168 h, time 1 weeks
[16] = Toxicity in ICR mouse assessed as histopathological change in liver at 20 mg/kg,po administrated for 1 week by hematoxylin and eosin staining analysis; type: organism-based; details: in vivo, 168 h, time 1 weeks
HCT-116 [17] = experiment: Antiproliferative activity against human HCT-116 cells assessed as inhibition of colony formation incubated for 2 weeks by crystal violet staining method; type: functional, cell-based
SW480 [18] = experiment: Anti-migration activity in human SW480 cells assessed as loss of actin cytoskeletal fibers at 3 to 12 uM by immunofluorescence assay; type: functional, cell-based; details: dose 3-12 µM
[19] = Toxicity in BALB/c mouse xenografted with human HCT-116 cells assessed as change in serum ALT level at 20 mg/kg,ip administrated for 2 weeks; type: organism-based; details: in vivo, 336 h
[20] = Toxicity in BALB/c mouse xenografted with human HCT-116 cells assessed as change in lung weight at 10 mg/kg,ip administrated for 2 weeks; type: organism-based; details: in vivo, 336 h
[21] = Toxicity in ICR mouse assessed as change in liver weight at 20 mg/kg,po administrated for 1 week; type: organism-based; details: in vivo, 168 h, time 1 weeks
[22] = Toxicity in BALB/c mouse xenografted with human HCT-116 cells assessed as change in heart weight at 10 mg/kg,ip administrated for 2 weeks; type: organism-based; details: in vivo, 336 h
HCT-116 [23] = experiment: Antitumor activity against human HCT-116 cells xenografted in BALB/c mouse assessed as tumor growth inhibition at 20 mg/kg,ip administrated for 2 weeks relative to control; type: functional; details: HCT-116, 336 h, read-out: TGI
SW480 [24] = experiment: Anti-migration activity in human SW480 cells assessed as change in N-cad expression at 3 to 12 uM by Western blotting analysis; type: functional, cell-based; details: dose 3-12 µM
RKO [25] = experiment: Anti-migration activity in human RKO cells assessed as loss of actin cytoskeletal fibers at 3 to 12 uM by immunofluorescence assay; type: functional, cell-based; details: dose 3-12 µM
[26] = Toxicity in ICR mouse assessed as change in body weight at 60 mg/kg,po administrated for 1 week; type: organism-based; details: in vivo, 168 h, time 1 weeks
[27] = Toxicity in ICR mouse assessed as histopathological change in liver at 60 mg/kg,po administrated for 1 week by hematoxylin and eosin staining analysis; type: organism-based; details: in vivo, 168 h, time 1 weeks
[28] = Toxicity in ICR mouse assessed as change in lung weight at 20 mg/kg,po administrated for 1 week; type: organism-based; details: in vivo, 168 h, time 1 weeks
[29] = Toxicity in ICR mouse assessed as change in kidney weight at 60 mg/kg,po administrated for 1 week; type: organism-based; details: in vivo, 168 h, time 1 weeks
[30] = Toxicity in BALB/c mouse xenografted with human HCT-116 cells assessed as change in liver weight at 20 mg/kg,ip administrated for 2 weeks; type: organism-based; details: in vivo, 336 h
HCT-116 [31] = experiment: Antitumor activity against human HCT-116 cells xenografted in BALB/c mouse assessed as downregulation of FAK expression in tumor at 20 mg/kg,ip administrated for 2 weeks by Western blotting analysis; type: functional, organism-based
BaF3 = experiment: Antiproliferative activity against mouse BaF3 transfected with FGFR4 assessed as inhibition of cell growth incubated for 72 hrs by CCK-8 assay; type: toxicity, cell-based; details: BaF3, 72 h
HCT-116 [32] = experiment: Antitumor activity against human HCT-116 cells xenografted in BALB/c mouse assessed as chromatin condensation at 20 mg/kg,ip administrated for 2 weeks by hematoxylin and eosin staining based analysis; type: functional, organism-based
HCT-116 [33] = experiment: Induction of apoptosis in human HCT-116 cells assessed as downregulation of ratio of Bcl-2/Bax expression at 3 to 12 uM incubated for 48 hrs by Western blotting analysis; type: functional, cell-based; details: dose 3-12 µM
[34] = Toxicity in BALB/c mouse xenografted with human HCT-116 cells assessed as change in serum ALT level at 10 mg/kg,ip administrated for 2 weeks; type: organism-based; details: in vivo, 336 h
RKO [35] = experiment: Antiproliferative activity against human RKO cells assessed as inhibition of colony formation incubated for 2 weeks by crystal violet staining method; type: functional, cell-based
[36] = molecular target: Fibroblast growth factor receptor 2 (Homo sapiens, UniProt P21802); experiment: Inhibition of FGFR2 (unknown origin) kinase activity
Fibroblast growth factor receptor 2, sequence (P21802 whole entry): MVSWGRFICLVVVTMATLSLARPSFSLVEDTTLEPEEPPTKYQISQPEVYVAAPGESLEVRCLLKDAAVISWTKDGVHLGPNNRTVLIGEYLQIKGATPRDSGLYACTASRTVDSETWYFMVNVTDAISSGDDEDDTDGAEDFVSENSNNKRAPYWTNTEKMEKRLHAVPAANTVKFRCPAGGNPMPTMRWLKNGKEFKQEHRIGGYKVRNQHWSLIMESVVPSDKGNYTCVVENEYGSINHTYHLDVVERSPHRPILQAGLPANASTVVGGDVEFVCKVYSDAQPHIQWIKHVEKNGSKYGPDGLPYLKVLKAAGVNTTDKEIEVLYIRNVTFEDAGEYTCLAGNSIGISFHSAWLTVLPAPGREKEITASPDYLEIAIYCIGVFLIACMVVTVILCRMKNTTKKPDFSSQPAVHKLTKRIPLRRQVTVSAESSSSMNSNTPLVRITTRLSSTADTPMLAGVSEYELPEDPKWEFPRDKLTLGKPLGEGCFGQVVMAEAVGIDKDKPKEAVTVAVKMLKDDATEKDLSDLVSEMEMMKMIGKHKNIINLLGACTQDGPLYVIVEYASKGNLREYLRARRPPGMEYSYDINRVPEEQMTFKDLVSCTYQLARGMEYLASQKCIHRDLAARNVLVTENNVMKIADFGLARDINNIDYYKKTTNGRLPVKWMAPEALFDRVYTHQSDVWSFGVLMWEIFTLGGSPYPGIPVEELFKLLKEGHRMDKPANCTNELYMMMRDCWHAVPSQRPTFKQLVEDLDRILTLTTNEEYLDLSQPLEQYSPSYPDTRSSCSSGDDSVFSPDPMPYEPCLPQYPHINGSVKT

SW480 [37] = experiment: Antiproliferative activity against human SW480 cells assessed as inhibition of colony formation incubated for 2 weeks by crystal violet staining method; type: functional, cell-based
RKO [38] = experiment: Induction of cell cycle arrest in human RKO cells assessed as accumulation of cells at G2/M phase incubated for 48 hrs by propidium iodide staining based flow cytometry; type: functional
[39] = Toxicity in BALB/c mouse xenografted with human HCT-116 cells assessed as histopathological change in liver at 10 mg/kg,ip administrated for 2 weeks by hematoxylin and eosin staining based analysis; type: organism-based; details: in vivo, 336 h
SW480 [40] = experiment: Anti-migration activity in human SW480 cells assessed as change in FAK distribution at 3 to 12 uM by immunofluorescence assay; type: functional, cell-based; details: dose 3-12 µM

Q: What does the source list for `C=CC(=O)NCCCn1c(=O)c(-c2c(Cl)c(OC)cc(OC)c2Cl)cc2cnc(Nc3c(C)cccc3NC(=O)C=C)cc21`?
A: Activity (HCT-116 [1]): Dose-Dependent Effect; Activity (HCT-116 [2]): Active; Activity (HCT-116 [3]): Dose-Dependent Effect; Activity (HCT-116 [4]): Dose-Dependent Effect; Activity (HCT-116 [5]): Active; IC50 (SW480 [6]): 6.99 µM; Activity (HCT-116 [7]): Active; Activity [8]: Non-Toxic; Activity [9]: Non-Toxic; Activity [10]: Non-Toxic; Activity (SW480 [11]): Dose-Dependent Effect; Activity [12]: Non-Toxic; Activity (HCT-116 [13]): Active; Activity [14]: Non-Toxic; Activity [15]: Non-Toxic; Activity [16]: Non-Toxic; Activity (HCT-116 [17]): Dose-Dependent Effect; Activity (SW480 [18]): Active; Activity [19]: Non-Toxic; Activity [20]: Non-Toxic; Activity [21]: Non-Toxic; Activity [22]: Non-Toxic; inhibition in vivo at 20 mg/kg (HCT-116 [23]): 70.5%; Activity (SW480 [24]): inactive; Activity (RKO [25]): Active; Activity [26]: Non-Toxic; Activity [27]: Non-Toxic; Activity [28]: Non-Toxic; Activity [29]: Non-Toxic; Activity [30]: Non-Toxic; Activity (HCT-116 [31]): Active; IC50 (BaF3): 0.00948 µM; Activity (HCT-116 [32]): Active; Activity (HCT-116 [33]): Active; Activity [34]: Non-Toxic; Activity (RKO [35]): Dose-Dependent Effect; IC50 [36]: 0.528 µM; Activity (SW480 [37]): Dose-Dependent Effect; Activity (RKO [38]): Dose-Dependent Effect; Activity [39]: Non-Toxic; Activity (SW480 [40]): Active
